Measured values taken from patent US5789431A, “Naphthoquinone antitumor compound and method” (The University of North Carolina at Chapel Hill, priority 1996, dated 1998).

Experiments:
[1] = system: LOX1MVI; assay: in vitro melanoma cell growth inhibition (NCI screen)
[2] = system: OVCAR-3; assay: in vitro ovarian cancer cell growth inhibition (NCI screen)
[3] = system: SW 620; assay: in vitro colon cancer cell growth inhibition (NCI screen)
[4] = system: K-562; assay: in vitro leukemia cell growth inhibition (NCI screen)
[5] = system: CCRF-CEM; assay: as above
[6] = system: RPMI-8226; assay: as above
[7] = system: HL-60(TB); assay: as above
[8] = system: DLD-1; assay: in vitro colon cancer cell growth inhibition (NCI screen)
[9] = system: HCT-15; assay: as above
[10] = system: RXF-393; assay: in vitro renal cancer cell growth inhibition (NCI screen)
[11] = system: MALME-3M; assay: in vitro melanoma cell growth inhibition (NCI screen)
[12] = system: COLO-205; assay: in vitro colon cancer cell growth inhibition (NCI screen)
[13] = system: MCF7/ADR-RES; assay: in vitro breast cancer cell growth inhibition (NCI screen)
[14] = system: UACC-257; assay: in vitro melanoma cell growth inhibition (NCI screen)
[15] = system: M14; assay: as above
[16] = system: HCT-116; assay: in vitro colon cancer cell growth inhibition (NCI screen)
[17] = system: HT 29; assay: as above
[18] = system: SK-MEL-5; assay: in vitro melanoma cell growth inhibition (NCI screen)
[19] = system: PC-3; assay: in vitro prostate cancer cell growth inhibition (NCI screen)
[20] = system: NCI-H522; assay: in vitro non-small cell lung cancer cell growth inhibition (NCI screen)
[21] = system: XF-498; assay: in vitro CNS cancer cell growth inhibition (NCI screen)
[22] = system: M19-MEL; assay: in vitro melanoma cell growth inhibition (NCI screen)
[23] = system: UACC-62; assay: as above
[24] = system: NCI-H460; assay: in vitro non-small cell lung cancer cell growth inhibition (NCI screen)
[25] = system: SR; assay: in vitro leukemia cell growth inhibition (NCI screen)
[26] = system: SK-MEL-2; assay: in vitro melanoma cell growth inhibition (NCI screen)
[27] = system: LXFL 529; assay: in vitro non-small cell lung cancer cell growth inhibition (NCI screen)
[28] = system: MOLT-4; assay: in vitro leukemia cell growth inhibition (NCI screen)
[29] = system: OVCAR-8; assay: in vitro ovarian cancer cell growth inhibition (NCI screen)
[30] = system: T-47D; assay: in vitro breast cancer cell growth inhibition (NCI screen)
[31] = system: MDA-MB-435; assay: as above
[32] = system: OVCAR-4; assay: in vitro ovarian cancer cell growth inhibition (NCI screen); settings: OVACR-4
[33] = system: SNB-75; assay: in vitro CNS cancer cell growth inhibition (NCI screen)
[34] = system: human tumor cell lines; format: cell-based; settings: Homo sapiens; cancer cell panel, general / most cell lines; read-out: logGI50 values in the cancer cell line panel (converted)
[35] = system: HOP-92; assay: in vitro non-small cell lung cancer cell growth inhibition (NCI screen)
[36] = system: NCI-H23; assay: as above
[37] = system: UO-31; assay: in vitro renal cancer cell growth inhibition (NCI screen)
[38] = system: SF-268; assay: in vitro CNS cancer cell growth inhibition (NCI screen)
[39] = system: SF-539; assay: as above
[40] = system: U 251; assay: as above

Compound	cytotoxicity log GI50 [1]	cytotoxicity log GI50 [2]	cytotoxicity log GI50 [4]	cytotoxicity log GI50 [5]	cytotoxicity log GI50 [7]	cytotoxicity log GI50 [8]	cytotoxicity log GI50 [9]	cytotoxicity log GI50 [10]	cytotoxicity log GI50 [11]	cytotoxicity log GI50 [12]	cytotoxicity log GI50 [14]	cytotoxicity log GI50 [16]	cytotoxicity log GI50 [18]	cytotoxicity log GI50 [20]	cytotoxicity log GI50 [22]	cytotoxicity log GI50 [23]	cytotoxicity log GI50 [24]	cytotoxicity log GI50 [27]	cytotoxicity log GI50 [28]	cytotoxicity log GI50 [35]	further results
CCC(C)NC1=C(NC(C)=O)C(=O)c2ccccc2C1=O (stereo not shown) [Compound 30]	-4.81 M	-4.39 M	-4.36 M	-4.66 M	-4.76 M	-4.56 M	-4.34 M	–	–	–	–	–	–	–	–	–	–	–	–	–	cytotoxicity log GI50 [3]: -4.65 M; cytotoxicity log GI50 [6]: -4.87 M
CCNC1=C(NC(=O)CC)C(=O)c2ccccc2C1=O [Compound 45]	–	-4.49 M	–	-4.25 M	–	–	-4.19 M	-4.32 M	-4.64 M	-4.33 M	-4.52 M	-4.44 M	-4.27 M	-4.34 M	–	–	–	–	–	–	cytotoxicity log GI50 [13]: -4.23 M; cytotoxicity log GI50 [15]: -4.50 M; cytotoxicity log GI50 [3]: -4.22 M; cytotoxicity log GI50 [17]: -4.46 M; cytotoxicity log GI50 [19]: -4.37 M
CCC(C)(C)n1c(C)nc2c1C(=O)c1ccccc1C2=O [Compound 12]	-4.71 M	–	-4.87 M	–	-5.12 M	-4.81 M	-4.64 M	-4.68 M	–	-4.77 M	–	-4.87 M	-4.80 M	–	-4.80 M	-4.87 M	-4.91 M	-4.86 M	-4.73 M	–	cytotoxicity log GI50 [21]: -4.77 M; cytotoxicity log GI50 [25]: -5.03 M; cytotoxicity log GI50 [26]: -4.73 M
CCn1c(-c2ccccc2)nc2c1C(=O)c1ccccc1C2=O [Compound 25]	–	-5.23 M	–	–	–	–	–	-4.81 M	-5.06 M	-4.85 M	-5.41 M	–	-4.95 M	-4.82 M	–	–	–	–	-4.83 M	–	cytotoxicity log GI50 [29]: -4.85 M; cytotoxicity log GI50 [30]: -5.65 M; cytotoxicity log GI50 [13]: -4.88 M; cytotoxicity log GI50 [15]: -4.81 M; cytotoxicity log GI50 [31]: -4.80 M; cytotoxicity log GI50 [32]: -4.90 M; cytotoxicity log GI50 [33]: -4.61 M; cytotoxicity log GI50 [17]: -5.05 M; cytotoxicity log GI50 [19]: -4.99 M; GI50 [34]: ~10 µM
CCC(CC)n1c(C)nc2c1C(=O)c1ccccc1C2=O [Compound 10]	-4.71 M	-4.59 M	-4.68 M	–	-4.97 M	-4.61 M	-5.04 M	–	-4.58 M	-4.57 M	-4.62 M	-4.71 M	-4.80 M	–	-4.83 M	-4.99 M	-4.68 M	-4.71 M	–	-4.65 M	cytotoxicity log GI50 [33]: -4.69 M; cytotoxicity log GI50 [36]: -4.67 M; cytotoxicity log GI50 [25]: -4.59 M; cytotoxicity log GI50 [26]: -4.56 M; cytotoxicity log GI50 [37]: -4.71 M
O=C(O)CCc1nc2c(n1-c1ccccc1)C(=O)c1ccccc1C2=O [Compound 60]	–	–	–	–	–	–	–	–	–	–	–	-4.30 M	–	-4.42 M	–	–	–	–	–	-7.65 M	cytotoxicity log GI50 [30]: -4.19 M
CCC(C)n1c(C)nc2c1C(=O)c1ccccc1C2=O (stereo not shown) [Compound 6]	-4.64 M	-4.49 M	-4.47 M	-4.43 M	-4.84 M	-4.57 M	-4.57 M	-4.57 M	-4.49 M	–	-4.55 M	-4.50 M	-4.57 M	–	-4.74 M	-4.55 M	-4.71 M	-4.48 M	-4.55 M	-4.66 M	cytotoxicity log GI50 [36]: -4.48 M; cytotoxicity log GI50 [38]: -4.51 M; cytotoxicity log GI50 [39]: -4.49 M
Cc1nc2c(n1CCC(C)C)C(=O)c1ccccc1C2=O [Compound 11]	-4.83 M	–	-5.09 M	-4.87 M	-5.22 M	-4.95 M	-4.93 M	–	–	-4.84 M	–	-5.17 M	-4.84 M	–	-4.84 M	-4.91 M	-5.22 M	-4.88 M	-5.08 M	–	cytotoxicity log GI50 [38]: -4.84 M; cytotoxicity log GI50 [25]: -5.33 M; cytotoxicity log GI50 [40]: -4.90 M; cytotoxicity log GI50 [39]: -4.92 M
COc1ccc(-n2c(CCC(=O)O)nc3c2C(=O)c2ccccc2C3=O)cc1 [Compound 62]	-4.55 M	–	–	–	–	–	–	–	–	–	–	–	–	-4.46 M	–	–	–	–	–	–	cytotoxicity log GI50 [30]: -4.48 M
Cc1nc2c(n1CC(C)C)C(=O)c1ccccc1C2=O [Compound 7]	–	-4.60 M	-4.52 M	–	-4.64 M	–	–	–	-4.69 M	–	-4.75 M	-4.68 M	-4.73 M	-4.58 M	-4.80 M	-4.68 M	-4.63 M	–	–	-4.99 M	cytotoxicity log GI50 [36]: -4.74 M; cytotoxicity log GI50 [26]: -4.59 M; cytotoxicity log GI50 [39]: -4.61 M; cytotoxicity log GI50 [37]: -4.58 M
